Reference: patent publication US9005577B2, “Substrate based PET imaging agents” (Siemens Medical Solutions USA, Inc., priority 2008, dated 2015)
Square brackets hold non-standard residues; d marks the D form. Peptide text beside a SMILES is read from it. * marks the point of attachment. PEG4 = NCCOCCOCCOCCOCCC(=O)O; X1 = O=C(Cn1cc(CCCF)nn1)*

Key:
Assay type in all cases: cell-based, human
H2122 = assay: Cold [19F] standard compound uptake in cells treated with apoptotic inducer, LC/MS (H2122); settings: cold standard compound 10 μM, 2 h, 1 mM 5FU for 2 days, % uptake normalized per mg protein extract
Method: (§1) When cells grown in 6-well plates reached 80% confluence, the growth medium was replaced with 2 ml of fresh medium containing 1 mM of 5FU. After two days of apoptotic induction, the standard compound was added into the cultures (control and 5FU treated) at a final concentration of 10 μM. The cells were cultured in the incubator for 2 hours for compound uptake. Then, (in the case of experiments involving the use of caspase-3 inhibitors as blockers, the inhibitor was added to the cells 1 hour early before the addition of standard compound). 100 μl of cell culture medium for each sample was collected, and the cells were harvested by centrifugation. Cell pellets were washed twice with 1×PBS, and lysed in 100 μl of lysis buffer. Both cell lysate and medium were boiled for 5 minutes to denature proteins, cooled down on ice, then 100 μl of chloroform/methanol (50/50 ratio) were added. After vortexing and extraction, the samples were centrifuged in Eppendorf tubes in a micro centrifuge at 13000 rpm for 15 minutes at 4 C. 50 μl of the supernatant was transferred to an HPLC vial. The amounts of compound (or product of caspase-3 cleavage) inside the cells and in the medium were measured by LC/MS. The % uptake=total amount of cell uptake/total amount of compound X 100%. The % uptake was normalized by the amount of cellular protein extract (mg): % Uptake/mg protein extracts.

A498 [1] = assay: Cold [19F] standard compound uptake in cells treated with apoptotic inducer, LC/MS (A498); settings: cold standard compound 10 μM, 2 h, 1 mM 5FU for 2 days, % uptake normalized per mg protein extract
Method: as §1

HT29 [2] = assay: Cold [19F] standard compound uptake in cells treated with apoptotic inducer, LC/MS (HT29); settings: cold standard compound 10 μM, 2 h, 1 mM 5FU for 2 days, % uptake normalized per mg protein extract
Method: as §1

U87 [3] = assay: Cold [19F] standard compound uptake in cells treated with apoptotic inducer, LC/MS (U87); settings: cold standard compound 10 μM, 2 h, 1 mM 5FU for 2 days, % uptake normalized per mg protein extract
Method: as §1

U87 [4] = assay: [18F]-tracer compound uptake in cancer cell lines treated with apoptotic inducer 5FU (U87); settings: [18F]-tracer 10 μCi/well, 2 h incubation, 1 mM 5FU for 2 days; % uptake normalized per mg protein extract
Method: (§2) Cells grown overnight and having reached about 80% confluence in 6-well plates were exposed to 1 mM of apoptotic inducer 5FU for 2 days in a cell culture incubator. The [18F]-labeled tracer was added into each well (triplicates for control and 5FU treated) at 10 μCi/well. (in case of experiments involving the use of caspase-3 inhibitors as blockers, the inhibitor was added to the cells 1 hour before the addition of the [18F]-tracer). The cells were then incubated for two hours. Cells were collected by scrape and centrifugation. Cell pellets were washed twice with 1λ PBS. The amount of tracer inside the cells and in the medium was measured by y-counter. The % Uptake=total CPM inside cells/total tracer CPM×100%. The % Uptake was normalized by the amount of cellular protein extract (mg): % uptake/mg protein extracts.

A498 [5] = assay: [18F]-tracer compound uptake in cancer cell lines treated with apoptotic inducer 5FU (A498); settings: [18F]-tracer 10 μCi/well, 2 h incubation, 1 mM 5FU for 2 days; % uptake normalized per mg protein extract
Method: as §2

HT29 [6] = assay: [18F]-tracer compound uptake in cancer cell lines treated with apoptotic inducer 5FU (HT29); settings: [18F]-tracer 10 μCi/well, 2 h incubation, 1 mM 5FU for 2 days; % uptake normalized per mg protein extract
Method: as §2

## CC(C)[C@H](NC(=O)[C@H](CCC(=O)O)NC(=O)[C@H](CC(=O)O)NC(=O)Cn1cc(CCCF)nn1)C(=O)N[C@@H](CC(=O)O)C(=O)NCC(=O)N[C@@H](CCCCN)C(=O)N[C@@H](CCCCN)C(=O)N[C@@H](CCCCN)C(=O)N[C@@H](CCCCN)C(N)=O [Compound 27] (X1-DEVDGKKKK-NH2)
H2122
  percent uptake H2122: 2.0%
A498 [1]
  percent uptake A498: 4.5%
HT29 [2]
  percent uptake HT29: 1.7%
U87 [3]
  percent uptake U87: 2.5%

## CC(C)[C@H](NC(=O)[C@H](CCC(=O)O)NC(=O)[C@H](CC(=O)O)NC(=O)Cn1cc(CCCF)nn1)C(=O)N[C@@H](CC(=O)O)C(=O)N[C@@H](C)C(=O)NCCOCCOCCOCCOCCC(=O)O [Compound 21] (X1-DEVDA[PEG4]-OH)
H2122
  percent uptake H2122: 1.3%
A498 [1]
  percent uptake A498: 2.1%
HT29 [2]
  percent uptake HT29: 1.1%
U87 [3]
  percent uptake U87: 2.0%

## CC(C)[C@H](NC(=O)[C@H](CCC(=O)O)NC(=O)[C@H](CC(=O)O)NC(=O)C1OC(CNC(=O)Cn2cc(CCC[18F])nn2)C(O)C(O)C1O)C(=O)N[C@@H](CC(=O)O)C(=O)N[C@@H](C)C(=O)NCCOCCOCCOCCOCCC(=O)O (stereo partly drawn) [^18F-56]
U87 [4]
  percent uptake U87: 2.1%
A498 [5]
  percent uptake A498: 2.1%
HT29 [6]
  percent uptake HT29: 1.9%

## CC(C)[C@H](NC(=O)[C@H](CCC(=O)O)NC(=O)[C@H](CC(=O)O)NC(=O)C1OC(CNC(=O)Cn2cc(CCC[18F])nn2)C(O)C(O)C1O)C(=O)N[C@@H](CC(=O)O)C(=O)NCC(N)=O (stereo partly drawn) [^18F-49]
A498 [5]
  percent uptake A498: 1.5%

## CC(C)[C@H](NC(=O)[C@H](CCC(=O)O)NC(=O)[C@H](CC(=O)O)NC(=O)Cn1cc(CCC[18F])nn1)C(=O)N[C@@H](CC(=O)O)C(=O)N[C@@H](C)C(=O)NCCOCCOCCOCCOCCC(=O)O [^18F-21]
U87 [4]
  percent uptake U87: 2.1%
A498 [5]
  percent uptake A498: 1.8%
HT29 [6]
  percent uptake HT29: 2.1%
